Patent US20240254119A1 (THIRD HARMONIC BIO, INC., priority 2022, published 2024)

Biological target: T1, wtKIT (Homo sapiens, UniProt P10721)
T1 construct: 1888289AM in the reaction mixtures
Assay: HTRF biochemical assay, wtKIT (phosphorylation of a peptide substrate)
Settings: Table 4
Description: Exemplary compounds were tested for ability to inhibit the phosphorylation of a peptide substrate by the tyrosine kinase wt KIT, PDGFRα, or CSF-1R. Assay procedures and results are described below.
Enzyme, substrate, and cofactors (ATP and Mn^2+) are combined in a well of a microtiter plate and incubated for 3 hours at 25° C. At the end of the incubation, the reaction is quenched by the addition of an EDTA-containing buffer.
The substrate used in the CSF-1R and PDGFRα assay is FAM-[…]-CONH2 (FAM is carboxyfluorescein). Peptide should be >95% purity. The substrate for the KIT assay is FAM-[…]-NH2.
• 1. To a well of a 384-wellplate add 5 μL of 2× enzyme buffer (or control). • 2. Add 100 nL of 100× compound. Enzyme and compound may be pre-incubated at this time if desired. • 3. Add 5 μL of 2× substrate buffer. • 4. Incubate plate at 25° C. for 3 hours. • 5. Add 10 uL of anti-phosphotyrosine antibody buffer. • 6. Read plate in BioTek Synergy Reader. Reaction Conditions for wtKIT Assay
• 100 mM HEPES, pH 7.5 0.1% BSA • 0.01% Triton x-100 • 1 mM DTT • 10 mM MnCl2 • 10 μM Sodium Orthovanadate • 10 μM Beta-Glycerophosphate • 400 μM ATP • 1% DMSO (from compound) • 1 μM FAM-[…]-CONH2, 5.0 nM wtKIT Enzyme (1888289AM)* • *Specific activity may vary from lot to lot. Enzyme concentration may need to be adjusted to yield 10-20% conversion of substrate to product.

T1 sequence (P10721 26-976): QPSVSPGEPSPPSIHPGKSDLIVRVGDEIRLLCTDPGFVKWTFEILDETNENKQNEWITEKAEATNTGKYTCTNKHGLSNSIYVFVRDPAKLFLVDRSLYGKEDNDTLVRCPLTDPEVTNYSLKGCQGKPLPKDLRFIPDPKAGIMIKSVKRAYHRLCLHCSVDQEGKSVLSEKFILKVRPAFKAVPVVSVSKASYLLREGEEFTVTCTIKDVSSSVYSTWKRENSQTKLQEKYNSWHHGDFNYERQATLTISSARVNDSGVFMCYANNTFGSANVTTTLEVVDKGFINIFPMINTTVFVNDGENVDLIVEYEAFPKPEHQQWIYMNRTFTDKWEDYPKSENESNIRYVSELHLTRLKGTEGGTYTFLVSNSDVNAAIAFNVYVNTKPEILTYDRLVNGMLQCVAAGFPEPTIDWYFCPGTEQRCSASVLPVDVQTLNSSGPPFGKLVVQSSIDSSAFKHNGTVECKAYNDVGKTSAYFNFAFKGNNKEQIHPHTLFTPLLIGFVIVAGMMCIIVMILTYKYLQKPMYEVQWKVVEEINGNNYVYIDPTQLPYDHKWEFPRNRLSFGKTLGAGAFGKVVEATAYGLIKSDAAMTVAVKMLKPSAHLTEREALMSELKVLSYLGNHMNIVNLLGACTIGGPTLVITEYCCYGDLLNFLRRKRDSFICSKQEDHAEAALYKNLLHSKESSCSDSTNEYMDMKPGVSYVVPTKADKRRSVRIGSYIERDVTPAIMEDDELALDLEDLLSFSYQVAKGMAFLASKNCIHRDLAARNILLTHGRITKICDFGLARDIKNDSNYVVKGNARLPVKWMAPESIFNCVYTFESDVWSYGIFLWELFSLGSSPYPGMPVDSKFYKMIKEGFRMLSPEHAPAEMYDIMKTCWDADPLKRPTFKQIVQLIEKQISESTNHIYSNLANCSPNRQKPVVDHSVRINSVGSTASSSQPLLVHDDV

SMILES	IC50 [nM]
Cc1ccc(-c2noc([C@H]3C[C@@H]3F)n2)cc1NC(=O)c1cnc2cc(C(C)OCCO)ccn12 (relative stereo) [Compound I-451, N-[5-[5-[(1R,2S)-2-fluorocyclopropyl]-1,2,4-oxadiazol-3-yl]-2-methyl-phenyl]-7-[(1R*)-1-(2-hydroxyethoxy)ethyl]imidazo[1,2-a]pyridine-3-carboxamide]	≤ 50
Cc1ccc(-c2noc(C3CC3F)n2)cc1NC(=O)c1cnc2cc(C(C)OCCO)ccn12 (single isomer, unassigned) [Compound I-450, N-[5-[5-[(1R,2S)-2-fluorocyclopropyl]-1,2,4-]-7-[(1S*)-1-(2-hydroxyethoxadiazol-3-yl]-2-methyl-phenyloxy)ethyl]imidazo[1,2-a]pyridine-3-carboxamide]	≤ 50
Cc1ccc(-c2noc([C@H]3C[C@@H]3F)n2)cc1NC(=O)c1cnc2cc(COCC(C)O)ccn12 (single isomer, unassigned) [Compound I-468, N-[5-[5-[(1R,2S)-2-fluorocyclopropyl]-1,2,4-oxadiazol-3-yl]-2-methyl-phenyl]-7-[[(2R*)-2-hydroxypropoxy]methyl]imidazo[1,2-a]pyridine-3-carboxamide]	≤ 50
Cc1ccc(-c2noc([C@H]3C[C@@H]3F)n2)cc1NC(=O)c1cnc2cc(COCC(C)O)ccn12 (single isomer, unassigned) [Compound I-469, N-[5-[5-[(1R,2S)-2-fluorocyclopropyl]-1,2,4-oxadiazol-3-yl]-2-methyl-phenyl]-7-[[(2S*)-2-hydroxypropoxy]methyl]imidazo[1,2-a]pyridine-3-carboxamide]	≤ 50
Cc1ccc(-c2noc([C@H]3C[C@@H]3F)n2)cc1NC(=O)c1cnc2cc3c(cn12)COC3C (single isomer, unassigned) [Compound I-470, (6S*)—N-[5-[5-[(1R,2S)-2-fluorocyclopropyl]-1,2,4-oxadiazol-3-yl]-2-methyl-phenyl]-6-methyl-5-oxa-1,10-diazatricyclo[7.3.0.03,7]dodeca-2,7,9,11-tetraene-12-carboxamide]	≤ 50
Cc1ccc(-c2noc([C@H]3C[C@@H]3F)n2)cc1NC(=O)c1cnc2cc3c(cn12)COC3C (single isomer, unassigned) [Compound I-471, (6R*)—N-[5-[5-[(1R,2S)-2-fluorocyclopropyl]-1,2,4-oxadiazol-3-yl]-2-methyl-phenyl]-6-methyl-5-oxa-1,10-diazatricyclo[7.3.0.03,7]dodeca-2,7,9,11-tetraene-12-carboxamide]	≤ 50
Cc1ccc(-c2noc([C@H]3C[C@@H]3F)n2)cc1NC(=O)c1cnc2cc3c(cn12)C(C)OC3 (single isomer, unassigned) [Compound I-482, (4S*)—N-[5-[5-[(1R,2S)-2-fluorocyclopropyl]-1,2,4-oxadiazol-3-yl]-2-methyl-phenyl]-4-methyl-5-oxa-1,10-diazatricyclo[7.3.0.0^3,7]dodeca-2,7,9,11-tetraene-12-carboxamide]	≤ 50
Cc1ccc(-c2noc([C@H]3C[C@@H]3F)n2)cc1NC(=O)c1cnc2cc3c(cn12)C(C)OC3 (single isomer, unassigned) [Compound I-483, (4R*)—N-[5-[5-[(1R,2S)-2-fluorocyclopropyl]-1,2,4-oxadiazol-3-yl]-2-methyl-phenyl]-4-methyl-5-oxa-1,10-diazatricyclo[7.3.0.0^3,7]dodeca-2,7,9,11-tetraene-12-carboxamide]	≤ 50
Cc1ccc(-c2noc(CC(O)C(F)F)n2)cc1NC(=O)c1cnc2cc(COCCO)ccn12 (single isomer, unassigned) [Compound I-511]	50 to 500
Cc1ccn2c(C(=O)Nc3cc(-c4noc(CCC(C)(O)C(F)(F)F)n4)ccc3C)cnc2c1 (single isomer, unassigned) [Compound I-515]	≤ 50
Cc1ccn2c(C(=O)Nc3cc(-c4noc(CCC(C)(O)C(F)(F)F)n4)ccc3C)cnc2c1 (single isomer, unassigned) [Compound I-516]	≤ 50
Cc1nc(-c2ccc(C)c(NC(=O)c3cnc4cc(OC5CCOC5)ccn34)c2)no1 (single isomer, unassigned) [Compound I-748]	50 to 500
